Experimental data as given in patent US20180200257A1, “METHODS FOR THE TREATMENT OF INFLAMMATORY DISORDERS” (Galapagos NV, priority 2015, published 2018).

Test system: subjects with moderately to severely active RA who have an inadequate response to methotrexate (MTX)
Test: Study 2 (monotherapy) - Alanine Aminotransferase (ALT) levels
Format: in vivo, human
Text: Randomized, double-blind, placebo-controlled, multicenter, phase IIb dose finding study of Compound 1 (dosed as a [Compound 1:HCl:3H2O]) administered for 24 weeks as monotherapy to subjects with moderately to severely active rheumatoid arthritis who have an inadequate response to methotrexate alone
Double-blind, placebo-controlled, monotherapy study in subjects with moderately to severely active RA who have an inadequate response to methotrexate (MTX) (oral or parenteral).
280 subjects randomized to one of 3 doses of Compound 1 (dosed as a [Compound 1:HCl:3H2O]) or to placebo, given once daily (q.d.).
Twelve weeks of treatment with Compound 1 (dosed as a [Compound 1:HCl:3H2O]) at 50 mg, 100 mg, or 200 mg q.d.; or placebo. At Week 12, all subjects on placebo and the subjects on the 50 mg dose who have not achieved 20% improvement in swollen joint count (SJC66) and tender joint count (TJC68) will be assigned to 100 mg q.d. in a blinded fashion and will continue treatment until Week 24. Subjects in the other groups will maintain their randomized treatment until Week 24.
ALT levels determination is available at Quest Diagnostics, Clinical Trials, Quest House, 125-135 Staines Road, Hounslow, Middlesex, TW3 3JB, United Kingdom under Catalogue n#84460.
ALT catalyzes the exchange of the amino group of alanine with the oxogroup of 2-ketoglutarate to form pyruvate and glutamate. In the presence of lactic dehydrogenase, pyruvate reacts with NADH to form NAD+, measured spectrophotometrically. Guidelines for the ALT value have been issued by the association for Clinical Biochemistry and Laboratory Medicine, 130-132 Tooley Street LONDON SE1 2TU, united Kingdom, wherein the ALT value should be below 34 U/l in Female and below 52 U/L in male.
Subjects in the other groups maintained their randomized treatment until Week 24.

[1] = 12 weeks results, 50 mg q.d., week 1
[2] = 12 weeks results, 50 mg q.d., week 2
[3] = 12 weeks results, 50 mg q.d., week 4
[4] = 12 weeks results, 50 mg q.d., week 8
[5] = 12 weeks results, 50 mg q.d., week 12
[6] = 12 weeks results, 100 mg q.d., week 1
[7] = 12 weeks results, 100 mg q.d., week 2
[8] = 12 weeks results, 100 mg q.d., week 4
[9] = 12 weeks results, 100 mg q.d., week 8
[10] = 12 weeks results, 100 mg q.d., week 12
[11] = 12 weeks results, 200 mg q.d., week 1
[12] = 12 weeks results, 200 mg q.d., week 2
[13] = 12 weeks results, 200 mg q.d., week 4
[14] = 12 weeks results, 200 mg q.d., week 8
[15] = 12 weeks results, 200 mg q.d., week 12
[16] = 24 weeks results, 50 mg q.d. non responders switching to 100 mg q.d. at week 12, week 1
[17] = 24 weeks results, 50 mg q.d. non responders switching to 100 mg q.d. at week 12, week 2
[18] = 24 weeks results, 50 mg q.d. non responders switching to 100 mg q.d. at week 12, week 4
[19] = 24 weeks results, 50 mg q.d. non responders switching to 100 mg q.d. at week 12, week 8
[20] = 24 weeks results, 50 mg q.d. non responders switching to 100 mg q.d. at week 12, week 12
[21] = 24 weeks results, 50 mg q.d. non responders switching to 100 mg q.d. at week 12, week 16
[22] = 24 weeks results, 50 mg q.d. non responders switching to 100 mg q.d. at week 12, week 20
[23] = 24 weeks results, 50 mg q.d. non responders switching to 100 mg q.d. at week 12, week 24
[24] = 24 weeks results, 50 mg q.d. responders, week 1
[25] = 24 weeks results, 50 mg q.d. responders, week 2
[26] = 24 weeks results, 50 mg q.d. responders, week 4
[27] = 24 weeks results, 50 mg q.d. responders, week 8
[28] = 24 weeks results, 50 mg q.d. responders, week 12
[29] = 24 weeks results, 50 mg q.d. responders, week 16
[30] = 24 weeks results, 50 mg q.d. responders, week 20
[31] = 24 weeks results, 50 mg q.d. responders, week 24
[32] = 24 weeks results, 100 mg q.d., week 1
[33] = 24 weeks results, 100 mg q.d., week 2
[34] = 24 weeks results, 100 mg q.d., week 4
[35] = 24 weeks results, 100 mg q.d., week 8
[36] = 24 weeks results, 100 mg q.d., week 12
[37] = 24 weeks results, 100 mg q.d., week 16
[38] = 24 weeks results, 100 mg q.d., week 20
[39] = 24 weeks results, 100 mg q.d., week 24
[40] = 24 weeks results, 200 mg q.d., week 1
[41] = 24 weeks results, 200 mg q.d., week 2
[42] = 24 weeks results, 200 mg q.d., week 4
[43] = 24 weeks results, 200 mg q.d., week 8
[44] = 24 weeks results, 200 mg q.d., week 12
[45] = 24 weeks results, 200 mg q.d., week 16
[46] = 24 weeks results, 200 mg q.d., week 20
[47] = 24 weeks results, 200 mg q.d., week 24
[48] = 24 weeks results, placebo switching to 100 mg q.d. at week 12, week 16
[49] = 24 weeks results, placebo switching to 100 mg q.d. at week 12, week 20
[50] = 24 weeks results, placebo switching to 100 mg q.d. at week 12, week 24

O=C(Nc1nc2cccc(-c3ccc(CN4CCS(=O)(=O)CC4)cc3)n2n1)C1CC1 [Compound 1, cyclopropanecarboxylic acid {5-[4-(1,1-dioxo-thiomorpholin-4-ylmethyl)-phenyl]-[1,2,4]triazolo[1,5-a]pyridin-2-yl}-amide]
Study 2 - ALT Mean CFB [1]: −1.4 IU/L | Study 2 - ALT Mean percentage CFB [1]: −1.29% | Study 2 - ALT Mean CFB [2]: −2.6 IU/L | Study 2 - ALT Mean percentage CFB [2]: −3.25% | Study 2 - ALT Mean CFB [3]: −2.2 IU/L | Study 2 - ALT Mean percentage CFB [3]: −3.73% | Study 2 - ALT Mean CFB [4]: −3.0 IU/L | Study 2 - ALT Mean percentage CFB [4]: −0.73% | Study 2 - ALT Mean CFB [5]: −1.4 IU/L | Study 2 - ALT Mean percentage CFB [5]: 1.77% | Study 2 - ALT Mean CFB [6]: 0.4 IU/L | Study 2 - ALT Mean percentage CFB [6]: 13.98% | Study 2 - ALT Mean CFB [7]: 0.7 IU/L | Study 2 - ALT Mean percentage CFB [7]: 13.25% | Study 2 - ALT Mean CFB [8]: 0.3 IU/L | Study 2 - ALT Mean percentage CFB [8]: 17.82% | Study 2 - ALT Mean CFB [9]: −0.5 IU/L | Study 2 - ALT Mean percentage CFB [9]: 7.83% | Study 2 - ALT Mean CFB [10]: 1.3 IU/L | Study 2 - ALT Mean percentage CFB [10]: 14.61% | Study 2 - ALT Mean CFB [11]: −1.8 IU/L | Study 2 - ALT Mean percentage CFB [11]: −0.92% | Study 2 - ALT Mean CFB [12]: −1.1 IU/L | Study 2 - ALT Mean percentage CFB [12]: 1.07% | Study 2 - ALT Mean CFB [13]: −1.4 IU/L | Study 2 - ALT Mean percentage CFB [13]: 4.71% | Study 2 - ALT Mean CFB [14]: −0.8 IU/L | Study 2 - ALT Mean percentage CFB [14]: 8.41% | Study 2 - ALT Mean CFB [15]: −1.1 IU/L | Study 2 - ALT Mean percentage CFB [15]: 5.69% | Study 2 - ALT Mean CFB [16]: −0.1 IU/L | Study 2 - ALT Mean percentage CFB [16]: 0.97% | Study 2 - ALT Mean CFB [17]: −0.2 IU/L | Study 2 - ALT Mean percentage CFB [17]: −0.54% | Study 2 - ALT Mean CFB [18]: 0.6 IU/L | Study 2 - ALT Mean percentage CFB [18]: 4.48% | Study 2 - ALT Mean CFB [19]: −1.3 IU/L | Study 2 - ALT Mean percentage CFB [19]: −4.46% | Study 2 - ALT Mean CFB [20]: −0.9 IU/L | Study 2 - ALT Mean percentage CFB [20]: −1.26% | Study 2 - ALT Mean CFB [21]: 0.9 IU/L | Study 2 - ALT Mean percentage CFB [21]: 6.27% | Study 2 - ALT Mean CFB [22]: 0.3 IU/L | Study 2 - ALT Mean percentage CFB [22]: 4.86% | Study 2 - ALT Mean CFB [23]: 3.2 IU/L | Study 2 - ALT Mean percentage CFB [23]: 22.47% | Study 2 - ALT Mean CFB [24]: −1.7 IU/L | Study 2 - ALT Mean percentage CFB [24]: −1.89% | Study 2 - ALT Mean CFB [25]: −3.3 IU/L | Study 2 - ALT Mean percentage CFB [25]: −3.98% | Study 2 - ALT Mean CFB [26]: −3.0 IU/L | Study 2 - ALT Mean percentage CFB [26]: −5.93% | Study 2 - ALT Mean CFB [27]: −3.4 IU/L | Study 2 - ALT Mean percentage CFB [27]: 0.30% | Study 2 - ALT Mean CFB [28]: −1.6 IU/L | Study 2 - ALT Mean percentage CFB [28]: 2.63% | Study 2 - ALT Mean CFB [29]: −0.2 IU/L | Study 2 - ALT Mean percentage CFB [29]: 17.03% | Study 2 - ALT Mean CFB [30]: −0.5 IU/L | Study 2 - ALT Mean percentage CFB [30]: 8.38% | Study 2 - ALT Mean CFB [31]: −0.2 IU/L | Study 2 - ALT Mean percentage CFB [31]: 16.54% | Study 2 - ALT Mean CFB [32]: 0.4 IU/L | Study 2 - ALT Mean percentage CFB [32]: 13.98% | Study 2 - ALT Mean CFB [33]: 0.7 IU/L | Study 2 - ALT Mean percentage CFB [33]: 13.25% | Study 2 - ALT Mean CFB [34]: 0.3 IU/L | Study 2 - ALT Mean percentage CFB [34]: 17.82% | Study 2 - ALT Mean CFB [35]: −0.5 IU/L | Study 2 - ALT Mean percentage CFB [35]: 7.83% | Study 2 - ALT Mean CFB [36]: 1.3 IU/L | Study 2 - ALT Mean percentage CFB [36]: 14.61% | Study 2 - ALT Mean CFB [37]: 4.1 IU/L | Study 2 - ALT Mean percentage CFB [37]: 25.66% | Study 2 - ALT Mean CFB [38]: 1.8 IU/L | Study 2 - ALT Mean percentage CFB [38]: 37.63% | Study 2 - ALT Mean CFB [39]: 0.4 IU/L | Study 2 - ALT Mean percentage CFB [39]: 20.33% | Study 2 - ALT Mean CFB [40]: −1.8 IU/L | Study 2 - ALT Mean percentage CFB [40]: −0.92% | Study 2 - ALT Mean CFB [41]: −1.1 IU/L | Study 2 - ALT Mean percentage CFB [41]: 1.07% | Study 2 - ALT Mean CFB [42]: −1.4 IU/L | Study 2 - ALT Mean percentage CFB [42]: 4.71% | Study 2 - ALT Mean CFB [43]: −0.8 IU/L | Study 2 - ALT Mean percentage CFB [43]: 8.41% | Study 2 - ALT Mean CFB [44]: −1.1 IU/L | Study 2 - ALT Mean percentage CFB [44]: 5.69% | Study 2 - ALT Mean CFB [45]: 0.4 IU/L | Study 2 - ALT Mean percentage CFB [45]: 17.47% | Study 2 - ALT Mean CFB [46]: −0.6 IU/L | Study 2 - ALT Mean percentage CFB [46]: 6.69% | Study 2 - ALT Mean CFB [47]: −1.3 IU/L | Study 2 - ALT Mean percentage CFB [47]: 5.83% | Study 2 - ALT Mean CFB [48]: 0.4 IU/L | Study 2 - ALT Mean percentage CFB [48]: 15.03% | Study 2 - ALT Mean CFB [49]: 0.8 IU/L | Study 2 - ALT Mean percentage CFB [49]: 17.28% | Study 2 - ALT Mean CFB [50]: 0.9 IU/L | Study 2 - ALT Mean percentage CFB [50]: 18.10%
